Results: the CheMixHub ionic liquid set

Experiment: xn = mol fraction of the nth substance listed

NCC(O)CO (centres undefined) + CC[n+]1ccn(C)c1.[Cl-]
101 kPa, x2 = 0.667
Details	viscosity [mPa·s]
298.15 K	321
303.15 K	230
313.15 K	125.5
323.15 K	70.2
333.15 K	44.6

CCCC[N+](CCCC)(CCCC)CCCC.[Cl-] + CNCCO
101.3 kPa
Details	viscosity [mPa·s]
293.15 K, x1 = 0.09104	29.5
298.15 K, x1 = 0.09104	22.9
298.15 K, x1 = 0.111	26.1
303.15 K, x1 = 0.1441	27
308.15 K, x1 = 0.1441	21.1
313.15 K, x1 = 0.1441	17.1
318.15 K, x1 = 0.09104	11.4
328.15 K, x1 = 0.111	7.84

CC[n+]1ccn(C)c1C.F[B-](F)(F)F + CO
101.3 kPa
Details	viscosity [mPa·s]
293.15 K, x1 = 0.1313	1.92
298.15 K, x1 = 0.09153	1.35
298.15 K, x1 = 0.2607	3.98
303.15 K, x1 = 0.03641	0.859
303.15 K, x1 = 0.1313	1.64
308.15 K, x1 = 0.06083	1.022
308.15 K, x1 = 0.09153	1.167
308.15 K, x1 = 0.1313	1.51
313.15 K, x1 = 0.1848	1.92
318.15 K, x1 = 0.3768	5.52
323.15 K, x1 = 0.03641	0.664
323.15 K, x1 = 0.09153	0.947
323.15 K, x1 = 0.1313	1.21
328.15 K, x1 = 0.09153	0.874
328.15 K, x1 = 0.1313	1.132
328.15 K, x1 = 0.3768	4.55
333.15 K, x1 = 0.1313	1.065
333.15 K, x1 = 0.1848	1.41

C[N+](C)(C)CCO.NCC(=O)[O-] + CO
viscosity [mPa·s], 100 kPa
Details	x1 = 0.1002	x1 = 0.2001	x1 = 0.2997	x1 = 0.4004	x1 = 0.4994	x1 = 0.6	x1 = 0.6997	x1 = 0.8001	x1 = 0.9	x1 = 1
298.15 K	2.3	6.55	15.49	34.55	64.1	108.4	170.2	260	369	501
303.15 K	2.08	5.72	13.06	28.31	50.8	84	128.3	193.9	269	363
308.15 K	1.89	5.03	11.1	23.47	40.9	66.3	99.9	146.7	201	264
313.15 K	1.73	4.47	9.55	19.74	33.58	53.4	78.9	111.5	153.5	201
318.15 K	1.58	3.98	8.28	16.74	27.95	45.2	62.8	89.7	118.8	154.5
323.15 K	1.46	3.57	7.27	14.32	23.49	37.8	51.2	71.9	94.3	121.1

C[N+](C)(CCCS(=O)(=O)O)C1CCCCC1.Cc1ccc(S(=O)(=O)[O-])cc1 + CO
viscosity [mPa·s], 101 kPa
Details	303.15 K	308.15 K	313.15 K	318.15 K	323.15 K	328.15 K
x1 = 0.01863	0.9656	0.8903	0.8173	0.7622	0.7053	0.6527
x1 = 0.04828	2.131	1.956	1.779	1.61	1.487	1.37
x1 = 0.1023	7.675	6.646	5.931	5.247	4.648	4.072
x1 = 0.2332	82.39	66.75	52.34	42.16	34.08	28.69
x1 = 1	113700	56930	32650	17830	10190	6293

CS(C)=O + COCCCC[n+]1ccn(C)c1.C[C@@H](O)[C@H](N)C(=O)[O-]
100 kPa, x2 = 0
Details	viscosity [mPa·s]
288.15 K	2.47
293.15 K	2.21
298.15 K	1.99
303.15 K	1.81
308.15 K	1.65
313.15 K	1.51
318.15 K	1.39

CS(C)=O + COCCCC[n+]1ccn(C)c1.NCC(=O)[O-]
Details	viscosity [mPa·s]
308.15 K, 100 kPa, x2 = 0	1.65

CCCC[n+]1ccn(C)c1.[Br-] + COCCO
viscosity [mPa·s], 100 kPa
Details	298.15 K	303.15 K	308.15 K	313.15 K
x1 = 0.4	–	–	43.9	28
x1 = 0.5	–	101	–	40.3
x1 = 0.7002	350	–	–	75

COS(=O)(=O)[O-].Cn1cc[n+](C)c1 + COCCO
viscosity [mPa·s], 101 kPa
Details	x1 = 0.0007603	x1 = 0.001899	x1 = 0.003034	x1 = 0.004168	x1 = 0.005298	x1 = 0.006426
293.15 K	2.01	2.03	2.05	2.07	2.09	2.11
303.15 K	1.4	1.42	1.44	1.46	1.48	1.5
313.15 K	0.97	0.99	1.01	1.03	1.05	1.07

CCCC[P+](CC)(CC)CC.Cc1ncc([N+](=O)[O-])[n-]1 + COCCOCCOCCOCCOC
100 kPa
Details	viscosity [mPa·s]
278.15 K, x2 = 0.048	1540
283.15 K, x2 = 0.102	631
283.15 K, x2 = 0.401	99
283.15 K, x2 = 0.501	57
298.15 K, x2 = 0.102	208
298.15 K, x2 = 0.201	130
308.15 K, x2 = 0.048	159
313.15 K, x2 = 0.102	90

CCCn1cc[n+](C)c1C.O=[N+]([O-])c1cn[n-]c1 + COCCOCCOCCOCCOC
100 kPa
Details	viscosity [mPa·s]
278.15 K, x2 = 0.399	252
283.15 K, x2 = 0.1	1670
283.15 K, x2 = 0.201	743
283.15 K, x2 = 0.499	88
288.15 K, x2 = 0.1	929
288.15 K, x2 = 0.201	449
298.15 K, x2 = 0.399	62
313.15 K, x2 = 0.201	76

CS(C)=O + COCCOCCn1cc[n+](CCC#N)c1.O=S(=O)([N-]S(=O)(=O)C(F)(F)F)C(F)(F)F
101.3 kPa, x2 = 0
Details	electrical conductivity [S/m]
293.15 K	0.000587
303.15 K	0.000881
313.15 K	0.00118
323.15 K	0.00148

CCCC[N+](CCCC)(CCCC)CCCC.[Cl-] + CSCC[C@H](N)C(=O)O
101 kPa
Details	electrical conductivity, x2 = 0.08333 [S/m]	electrical conductivity, x2 = 0.09091 [S/m]	electrical conductivity, x2 = 0.1 [S/m]	viscosity, x2 = 0.08333 [mPa·s]	viscosity, x2 = 0.09091 [mPa·s]	viscosity, x2 = 0.1 [mPa·s]
303.15 K	0.0061	0.0165	0.0113	2200	2300	2400
313.15 K	0.016	0.026	0.022	1400	1570	1560
323.15 K	0.0259	0.0418	0.0313	415	530	480
333.15 K	0.0749	0.0929	0.0837	221	295	290
343.15 K	0.107	0.129	0.12	119	157	148
353.15 K	0.14	0.17	0.15	70	94	87

CCCC[N+](CCCC)(CCCC)CCCC.[Cl-] + C[C@@H](O)[C@H](N)C(=O)O
101 kPa
Details	electrical conductivity, x2 = 0.09091 [S/m]	electrical conductivity, x2 = 0.1 [S/m]	electrical conductivity, x2 = 0.1111 [S/m]	viscosity, x2 = 0.09091 [mPa·s]	viscosity, x2 = 0.1 [mPa·s]	viscosity, x2 = 0.1111 [mPa·s]
303.15 K	0.0086	0.0049	0.0067	223	179	1020
313.15 K	0.0157	0.0117	0.0135	131	104	630
323.15 K	0.0279	0.0199	0.0236	73	68	322
333.15 K	0.039	0.0311	0.036	46	43	186
343.15 K	0.045	0.0402	–	34	31	109
353.15 K	0.0583	0.0516	0.0569	24	24	63
